Reference: patent US4018801A, “Substituted oxirane compounds” (The Dow Chemical Company, priority 1975, dated 1977)

Legend:
Assay type in all cases: in vivo
Crabgrass [1] = test: Pre-emergent control of seed germination, soil drench; conditions: for Percent Pre-Emergent Control of Seed Germination: Crabgrass, about 2 weeks; for % Control: pre-emergence, Crab Grass
Johnson Grass [2] = test: as above; conditions: Johnson Grass; for Percent Pre-Emergent Control of Seed Germination: about 2 weeks; for % Control: pre-emergence
Crabgrass [3] = test: Post-emergent control, foliage spray; conditions: about two weeks
Procedure: (§1) An aqueous composition containing 2-(m-bromophenyl)- 2-(2,2,2-trichloroethyl)oxirane was prepared as described in Example 32. Separate portions of this composition were thereafter dispersed in a further quantity of water to prepare aqueous spray compositions containing 250, 500, 1000, 2000 and 4000 parts, respectively of the compound per million parts by weight of ultimate treating composition. These compositions were applied as foliage sprays to various grass and broadleaf plant species, the plants being of two to four inches in height and growing in seed beds. The treatments were carried out with conventional spray equipment, the plants being sprayed to the point of run-off. Similar beds of the plant species were left untreated to serve as checks. After about two weeks, the beds were examined to ascertain what control of the growth of plants had been obtained. The plant species employed, together with the percent control obtained at the employed dosage rate of the composition is set forth in the following Table V.

Cultured Rice = test: Post-emergent control, foliage spray; conditions: about two weeks
Procedure: as §1

Soybean = test: Post-emergent control, foliage spray; conditions: about two weeks
Procedure: as §1

Corn = test: Post-emergent control, foliage spray; conditions: about two weeks
Procedure: as §1

Johnson Grass [4] = test: Post-emergent control, foliage spray; conditions: about two weeks
Procedure: as §1

Wild Oats [5] = test: Post-emergent control, foliage spray; conditions: about two weeks
Procedure: as §1

Pinto Beans = test: Post-emergent control, foliage spray; conditions: about two weeks
Procedure: as §1

White Winter Wheat = test: Post-emergent control, foliage spray; conditions: about two weeks
Procedure: as §1

Yellow Foxtail [6] = test: Post-emergent control, foliage spray; conditions: about two weeks
Procedure: as §1

Barnyard Grass = test: Pre-emergent control of seed germination, soil drench; conditions: Barnyard Grass, about 2 weeks
How it was run: (§2)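 Compound formulated with Span 85/Tween 80 in acetone, dispersed in water, and applied as a soil drench to seeded beds at 1.0, 2.0 and 5.0 lb/acre (about 1.6, 3.2, 8.0 ppm soil); lower concentrations also tested. Germination control scored versus untreated checks after about 2 weeks.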

Pigweeds = test: as above; conditions: Pig Weeds, about 2 weeks
How it was run: as §2

Wild Oats [7] = test: as above; conditions: Wild Oats, about 2 weeks
How it was run: as §2

Yellow Foxtail [8] = test: as above; conditions: Yellow Foxtail, about 2 weeks
How it was run: as §2

ClC(Cl)(Cl)CC1(c2cccc(Br)c2)CO1 (stereo not shown) [Example 3, 2-(m-bromophenyl)-2-(2,2,2-trichloroethyl)oxirane]
70%: % Control (Crabgrass [1]; 1/16 Lb/Acre) | Percent Post-Emergent Control of Seed Germination (Wild Oats [5]; 500 parts per million)
95%: % Control (Crabgrass [1]; 1/8 Lb/Acre) | Percent Pre-Emergent Control of Seed Germination (Johnson Grass [2]; 1.0 pounds per surface acre) | Percent Pre-Emergent Control of Seed Germination (Johnson Grass [2]; 2.0 pounds per surface acre) | % Control (Johnson Grass [2]; 1/8 Lb/Acre) | % Control (Johnson Grass [2]; 1/16 Lb/Acre) | Percent Post-Emergent Control of Seed Germination (Crabgrass [3]; 1000 parts per million) | Percent Post-Emergent Control of Seed Germination (Crabgrass [3]; 2000 parts per million) | Percent Post-Emergent Control of Seed Germination (Crabgrass [3]; 4000 parts per million) | Percent Post-Emergent Control of Seed Germination (Corn; 2000 parts per million) | Percent Post-Emergent Control of Seed Germination (Corn; 4000 parts per million) | Percent Post-Emergent Control of Seed Germination (Johnson Grass [4]; 250 parts per million) | Percent Post-Emergent Control of Seed Germination (Johnson Grass [4]; 500 parts per million) | Percent Post-Emergent Control of Seed Germination (Johnson Grass [4]; 1000 parts per million) | Percent Post-Emergent Control of Seed Germination (Johnson Grass [4]; 2000 parts per million) | Percent Post-Emergent Control of Seed Germination (Johnson Grass [4]; 4000 parts per million) | Percent Post-Emergent Control of Seed Germination (Wild Oats [5]; 4000 parts per million) | Percent Post-Emergent Control of Seed Germination (Yellow Foxtail [6]; 500 parts per million) | Percent Post-Emergent Control of Seed Germination (Yellow Foxtail [6]; 1000 parts per million) | Percent Post-Emergent Control of Seed Germination (Yellow Foxtail [6]; 2000 parts per million) | Percent Post-Emergent Control of Seed Germination (Yellow Foxtail [6]; 4000 parts per million) | Percent Pre-Emergent Control of Seed Germination (Barnyard Grass; 1.0 pounds per surface acre) | Percent Pre-Emergent Control of Seed Germination (Barnyard Grass; 2.0 pounds per surface acre) | Percent Pre-Emergent Control of Seed Germination (Barnyard Grass; 5.0 pounds per surface acre) | Percent Pre-Emergent Control of Seed Germination (Pigweeds; 1.0 pounds per surface acre) | Percent Pre-Emergent Control of Seed Germination (Yellow Foxtail [8]; 5.0 pounds per surface acre)
65%: Percent Post-Emergent Control of Seed Germination (Crabgrass [3]; 500 parts per million)
85%: Percent Post-Emergent Control of Seed Germination (Soybean; 4000 parts per million) | Percent Post-Emergent Control of Seed Germination (Wild Oats [5]; 1000 parts per million) | Percent Post-Emergent Control of Seed Germination (Wild Oats [5]; 2000 parts per million)
75%: Percent Post-Emergent Control of Seed Germination (Soybean; 2000 parts per million) | Percent Post-Emergent Control of Seed Germination (Pinto Beans; 2000 parts per million) | Percent Post-Emergent Control of Seed Germination (Pinto Beans; 4000 parts per million)
0%: Percent Pre-Emergent Control of Seed Germination (Crabgrass [1]; 1.0 pounds per surface acre) | Percent Post-Emergent Control of Seed Germination (Cultured Rice; 250 parts per million) | Percent Post-Emergent Control of Seed Germination (Cultured Rice; 500 parts per million) | Percent Post-Emergent Control of Seed Germination (Cultured Rice; 1000 parts per million) | Percent Post-Emergent Control of Seed Germination (Corn; 250 parts per million) | Percent Post-Emergent Control of Seed Germination (White Winter Wheat; 250 parts per million) | Percent Post-Emergent Control of Seed Germination (White Winter Wheat; 500 parts per million)
100%: Percent Pre-Emergent Control of Seed Germination (Crabgrass [1]; 2.0 pounds per surface acre) | Percent Pre-Emergent Control of Seed Germination (Crabgrass [1]; 5.0 pounds per surface acre) | Percent Pre-Emergent Control of Seed Germination (Johnson Grass [2]; 5.0 pounds per surface acre) | Percent Pre-Emergent Control of Seed Germination (Pigweeds; 2.0 pounds per surface acre) | Percent Pre-Emergent Control of Seed Germination (Pigweeds; 5.0 pounds per surface acre) | Percent Pre-Emergent Control of Seed Germination (Wild Oats [7]; 1.0 pounds per surface acre) | Percent Pre-Emergent Control of Seed Germination (Wild Oats [7]; 2.0 pounds per surface acre) | Percent Pre-Emergent Control of Seed Germination (Wild Oats [7]; 5.0 pounds per surface acre) | Percent Pre-Emergent Control of Seed Germination (Yellow Foxtail [8]; 1.0 pounds per surface acre) | Percent Pre-Emergent Control of Seed Germination (Yellow Foxtail [8]; 2.0 pounds per surface acre)
40%: Percent Post-Emergent Control of Seed Germination (Cultured Rice; 2000 parts per million) | Percent Post-Emergent Control of Seed Germination (Yellow Foxtail [6]; 250 parts per million)
50%: Percent Post-Emergent Control of Seed Germination (Cultured Rice; 4000 parts per million) | Percent Post-Emergent Control of Seed Germination (Soybean; 1000 parts per million) | Percent Post-Emergent Control of Seed Germination (Corn; 1000 parts per million) | Percent Post-Emergent Control of Seed Germination (Wild Oats [5]; 250 parts per million) | Percent Post-Emergent Control of Seed Germination (Pinto Beans; 250 parts per million) | Percent Post-Emergent Control of Seed Germination (Pinto Beans; 500 parts per million) | Percent Post-Emergent Control of Seed Germination (Pinto Beans; 1000 parts per million) | Percent Post-Emergent Control of Seed Germination (White Winter Wheat; 1000 parts per million) | Percent Post-Emergent Control of Seed Germination (White Winter Wheat; 2000 parts per million) | Percent Post-Emergent Control of Seed Germination (White Winter Wheat; 4000 parts per million)
30%: Percent Post-Emergent Control of Seed Germination (Crabgrass [3]; 250 parts per million) | Percent Post-Emergent Control of Seed Germination (Soybean; 250 parts per million) | Percent Post-Emergent Control of Seed Germination (Soybean; 500 parts per million) | Percent Post-Emergent Control of Seed Germination (Corn; 500 parts per million)
